Experimental data taken from the supplement of paper PMC10307832.

How the values were obtained:
Experiment in all cases: relative viability (nuclei count vs DMSO), 5 days (fraction); higher = more cells survive
BI-2536 + Olaparib = compound: CC[C@@H]1C(=O)N(C)c2cnc(Nc3ccc(C(=O)NC4CCN(C)CC4)cc3OC)nc2N1C1CCCC1 [BI-2536] + O=C(c1cc(Cc2n[nH]c(=O)c3ccccc23)ccc1F)N1CCN(C(=O)C2CC2)CC1 [Olaparib] (partner 8 µM)
How it was run: (§1)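 Relative viability is defined as nuclei in treated wells over nuclei in vehicle wells. Duplicate plates were run and medians reported. Lung cancer cell lines in 1536-well plates were dosed by pin tool one day after seeding, with one drug or with a fixed anchor-drug dose plus five library-drug doses (not always all listed) in √10 steps, and nuclei were counted after 5 days.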

BI-2536 + Tozasertib = compound: CC[C@@H]1C(=O)N(C)c2cnc(Nc3ccc(C(=O)NC4CCN(C)CC4)cc3OC)nc2N1C1CCCC1 [BI-2536] + Cc1cc(Nc2cc(N3CCN(C)CC3)nc(Sc3ccc(NC(=O)C4CC4)cc3)n2)n[nH]1 [Tozasertib] (partner 0.1 µM)
How it was run: as §1

[1] = compound: CC1CC(=O)N(C2=CN=C(N=C2N1C3CCCC3)NC4=C(C=C(C=C4)C(=O)NC5CCN(CC5)C)OC)C [NPK76-II-72-1] + O=C(CCCCCCC(=O)Nc1ccccc1)NO [Vorinostat] (partner 1 µM)
How it was run: as §1

BI-2536 + Luminespib = compound: CC[C@@H]1C(=O)N(C)c2cnc(Nc3ccc(C(=O)NC4CCN(C)CC4)cc3OC)nc2N1C1CCCC1 [BI-2536] + CCNC(=O)c1noc(-c2cc(C(C)C)c(O)cc2O)c1-c1ccc(CN2CCOCC2)cc1 [Luminespib] (partner 0.01 µM)
How it was run: as §1

| Cell Line | relative viability (BI-2536 + Olaparib; first compound 0.01 µM) | relative viability (BI-2536 + Olaparib; first compound 0.03162 µM) | relative viability (BI-2536 + Olaparib; first compound 0.1 µM) | relative viability (BI-2536 + Olaparib; first compound 0.3162 µM) | relative viability (BI-2536 + Olaparib; first compound 1 µM) | relative viability (BI-2536 + Tozasertib; first compound 0.01 µM) | relative viability (BI-2536 + Tozasertib; first compound 0.03162 µM) | relative viability (BI-2536 + Tozasertib; first compound 0.1 µM) | relative viability (BI-2536 + Tozasertib; first compound 0.3162 µM) | relative viability (BI-2536 + Tozasertib; first compound 1 µM) | relative viability ([1]; first compound 0.01 µM) | relative viability ([1]; first compound 0.03162 µM) | relative viability ([1]; first compound 0.1 µM) | relative viability ([1]; first compound 0.3162 µM) | relative viability ([1]; first compound 1 µM) | relative viability (BI-2536 + Luminespib; first compound 0.01 µM) | relative viability (BI-2536 + Luminespib; first compound 0.03162 µM) | relative viability (BI-2536 + Luminespib; first compound 0.1 µM) | relative viability (BI-2536 + Luminespib; first compound 0.3162 µM) | relative viability (BI-2536 + Luminespib; first compound 1 µM) |
| --- | --- | --- | --- | --- | --- | --- | --- | --- | --- | --- | --- | --- | --- | --- | --- | --- | --- | --- | --- | --- |
| RERF-LC-KJ | 0.901 | 0.571 | 0.24 | 0.201 | 0.223 | 0.496 | 0.405 | 0.275 | 0.224 | 0.226 | 0.639 | 0.725 | 0.662 | 0.701 | 0.673 | 1.28 | 0.614 | 0.26 | 0.306 | 0.303 |
| NCI-H1650 | 0.866 | 0.689 | 0.609 | 0.166 | 0.143 | 0.403 | 0.283 | 0.252 | 0.179 | 0.196 | 0.571 | 0.508 | 0.658 | 0.57 | 0.555 | 0.188 | 0.166 | 0.21 | 0.183 | 0.198 |
| BEN | 1.09 | 0.984 | 0.779 | 0.382 | 0.364 | 0.524 | 0.546 | 0.452 | 0.58 | 0.553 | 0.61 | 0.711 | 0.598 | 0.591 | 0.636 | 0.486 | 0.611 | 0.282 | 0.158 | 0.217 |
| EMC-BAC-2 | 0.463 | 0.324 | 0.303 | 0.207 | 0.231 | 0.302 | 0.302 | 0.201 | 0.212 | 0.209 | 0.423 | 0.186 | 0.493 | 0.416 | 0.524 | 1.22 | 1.19 | 1.08 | 0.251 | 0.22 |
| LU99A | 0.23 | 0.24 | 0.192 | 0.137 | 0.149 | 0.272 | 0.235 | 0.248 | 0.281 | 0.227 | 0.437 | 0.492 | 0.62 | 0.535 | 0.528 | 0.251 | 0.254 | 0.194 | 0.159 | 0.241 |
| ABC-1 | 0.657 | 0.876 | 0.423 | 0.406 | 0.299 | 0.203 | 0.147 | 0.185 | 0.197 | 0.233 | 1 | 1.13 | 0.356 | 1.36 | 1.07 | 0.54 | 0.293 | – | 0.28 | 0.39 |
| NCI-H2170 | 0.597 | 0.525 | 0.39 | 0.164 | 0.145 | 0.713 | 0.89 | 0.593 | 0.177 | 0.249 | 0.731 | 0.855 | 0.823 | 0.38 | 0.941 | 0.624 | 0.802 | 0.661 | 0.205 | 0.219 |
| NCI-H1299 | 1.01 | 0.907 | 0.828 | 0.237 | 0.221 | – | – | – | – | – | – | – | – | – | – | – | – | – | – | – |
| EBC-1 | 0.616 | 0.612 | 0.377 | 0.139 | 0.133 | – | – | – | – | – | – | – | – | – | – | – | – | – | – | – |
| NCI-H2347 | 0.537 | 0.501 | 0.531 | 0.471 | 0.405 | – | 0.503 | 0.465 | 0.295 | 0.352 | 0.744 | 0.588 | 0.656 | 0.641 | 0.603 | – | 0.517 | 0.41 | 0.378 | 0.272 |
| NCI-H1993 | 1.04 | 0.861 | 0.749 | 0.471 | 0.486 | 0.497 | 0.615 | 0.609 | 0.617 | 0.59 | 0.486 | 0.777 | 0.784 | 0.725 | 0.728 | 0.856 | 0.747 | 0.521 | 0.602 | 0.515 |
| NCI-H322M | 0.74 | 0.692 | 0.637 | 0.442 | 0.393 | 0.517 | 0.451 | 0.571 | 0.445 | 0.377 | 0.886 | 0.808 | 0.861 | 1.01 | 0.913 | 0.844 | 0.509 | 0.439 | 0.409 | 0.303 |
| NCI-H838 | 0.731 | 0.638 | 0.368 | 0.0986 | 0.0726 | 0.239 | 0.269 | 0.241 | 0.229 | 0.225 | 0.69 | 0.73 | 0.717 | 0.684 | 0.672 | 0.357 | 0.307 | 0.146 | 0.125 | 0.114 |
| HARA | 0.8 | 0.988 | 0.507 | 0.139 | 0.0972 | 0.109 | 0.127 | 0.114 | 0.0998 | 0.128 | 0.493 | 0.668 | 0.564 | 0.485 | 0.603 | 0.784 | 1.46 | 0.148 | 0.0637 | 0.0578 |
| NCI-H1792 | 0.543 | 0.374 | 0.316 | 0.0436 | 0.0344 | – | – | – | – | – | – | – | – | – | – | 0.485 | 0.432 | 0.388 | 0.229 | 0.28 |
| A549 | 0.267 | 0.444 | 0.125 | 0.0214 | 0.0368 | – | – | – | – | – | – | – | – | – | – | – | – | – | – | – |
| NCI-H1563 | – | – | – | – | – | – | – | – | – | – | – | – | – | – | – | 0.483 | 0.547 | 0.545 | 0.507 | 0.372 |
| HCC-78 | 0.783 | 0.904 | 0.774 | 0.47 | 0.204 | 0.405 | 0.304 | 0.325 | 0.253 | 0.259 | 0.456 | 0.461 | 0.463 | 0.418 | 0.499 | – | – | – | – | – |
| IA-LM | 0.763 | 0.752 | 0.402 | 0.101 | 0.102 | – | – | – | – | – | 1.1 | 0.923 | 0.852 | 1.03 | 1.1 | – | – | – | – | – |
| NCI-H1703 | 0.426 | 0.315 | 0.209 | 0.102 | 0.111 | – | – | – | – | – | – | – | – | – | – | – | – | – | – | – |
| NCI-H1648 | 0.794 | 0.887 | 0.545 | 0.23 | 0.275 | 0.437 | 0.414 | 0.336 | 0.159 | 0.22 | 0.455 | 0.536 | 0.319 | 0.348 | 0.437 | – | – | – | – | – |
